Drawing on PubChem BioAssay AID248 (DTP/NCI, 2004), this text covers T/C for 22 compounds.

The test concerns L1210 leukemia ip in BDF1 mice, survival T/C. As to the kind of experiment: NCI In Vivo Anticancer Drug Screen. Data for tumor model L1210 Leukemia (intraperitoneal) in B6D2F1 (BDF1) mice. Particulars: endpoint: mean survival time, higher = longer survival. Summed up:
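Transplantable tumor model; survival measured in treated vs vehicle control mice. Value = treated/control.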

Where [1] appears, read: dose: 100.0 mg/kg/injection, schedule: Q01DX009 (ip), vehicle: saline with Tween-80.
The mark [2] stands for this setting: dose: 200.0 mg/kg/injection, schedule: Q01DX009 (ip), vehicle: saline with Tween-80.
Setting [3] is: dose: 400.0 mg/kg/injection, schedule: Q01DX009 (ip), vehicle: saline with Tween-80.
Setting [4] is: dose: 100.0 mg/kg/injection, schedule: Q01DX001 (ip), vehicle: saline.
[5] abbreviates: dose: 200.0 mg/kg/injection, schedule: Q04DX003 (ip), vehicle: saline.
Setting [6] is: dose: 400.0 mg/kg/injection, schedule: Q04DX003 (ip), vehicle: saline.
[7] abbreviates: dose: 100.0 mg/kg/injection, schedule: Q04DX002 (ip), vehicle: Klucel (hydroxypropylcellulose) (HPC).
Where [8] appears, read: dose: 200.0 mg/kg/injection, schedule: Q04DX002 (ip), vehicle: Klucel (hydroxypropylcellulose) (HPC).
The mark [9] stands for this setting: dose: 400.0 mg/kg/injection, schedule: Q04DX002 (ip), vehicle: Klucel (hydroxypropylcellulose) (HPC).
The mark [10] stands for this setting: dose: 100.0 mg/kg/injection, schedule: Q01DX009 (ip), vehicle: Klucel (hydroxypropylcellulose) (HPC).
The mark [11] stands for this setting: dose: 200.0 mg/kg/injection, schedule: Q01DX009 (ip), vehicle: Klucel (hydroxypropylcellulose) (HPC).
Where [12] appears, read: dose: 400.0 mg/kg/injection, schedule: Q01DX009 (ip), vehicle: Klucel (hydroxypropylcellulose) (HPC).
Where [13] appears, read: dose: 100.0 mg/kg/injection, schedule: Q04DX003 (ip), vehicle: saline with Tween-80.
Setting [14] is: dose: 200.0 mg/kg/injection, schedule: Q04DX003 (ip), vehicle: saline with Tween-80.
Setting [15] is: dose: 50.0 mg/kg/injection, schedule: Q04DX003 (ip), vehicle: Klucel (hydroxypropylcellulose) (HPC).
[16] abbreviates: dose: 100.0 mg/kg/injection, schedule: Q04DX003 (ip), vehicle: Klucel (hydroxypropylcellulose) (HPC).
Where [17] appears, read: dose: 200.0 mg/kg/injection, schedule: Q04DX003 (ip), vehicle: Klucel (hydroxypropylcellulose) (HPC).
[18] abbreviates: dose: 100.0 mg/kg/injection, schedule: Q01DX001 (ip), vehicle: Klucel (hydroxypropylcellulose) (HPC).
[19] abbreviates: dose: 200.0 mg/kg/injection, schedule: Q01DX001 (ip), vehicle: Klucel (hydroxypropylcellulose) (HPC).
[20] abbreviates: dose: 400.0 mg/kg/injection, schedule: Q01DX001 (ip), vehicle: Klucel (hydroxypropylcellulose) (HPC).

Molecules are shown by their SMILES. Values joined by “and” are separate entries in the source; they are usually repeats but may differ in a detail not shown here. Identical values can stand only once. Toxic doses and inconclusive results are not listed.

In the case of `O=[N+]([O-])c1cccc(S(=O)(=O)OCn2ncc3ccc([N+](=O)[O-])cc32)c1`, the T/C is 94 % of control (dose: 5.0 mg/kg/injection, schedule: Q01DX001 (ip), vehicle: saline); 100 % of control (dose: 10.0 mg/kg/injection, schedule: Q01DX001 (ip), vehicle: saline); 100 % of control (dose: 20.0 mg/kg/injection, schedule: Q01DX001 (ip), vehicle: saline); 97 % of control (dose: 40.0 mg/kg/injection, schedule: Q01DX001 (ip), vehicle: saline).

Take `CCOC(=O)Nc1cccc(O)c1`: the T/C under setting [1] was 91 % of control, the T/C under setting [2] is 103 % of control and the T/C under setting [3] is 92 % of control.

For the compound `CC(=O)OC1CC2CCC1(S(=O)(=O)O)C2(C)C` (centres undefined), the T/C runs as follows: under setting [4], 107 % of control; (dose: 100.0 mg/kg/injection, schedule: Q04DX003 (ip), vehicle: saline) 103 % of control; (dose: 200.0 mg/kg/injection, schedule: Q01DX001 (ip), vehicle: saline) 108 % of control; under setting [5], 103 % of control; (dose: 400.0 mg/kg/injection, schedule: Q01DX001 (ip), vehicle: saline) 107 % of control; under setting [6], 114 % of control.

Regarding `CCN(CC)c1ccnc(SCc2ccccc2)n1`, the T/C was 89 % of control (dose: 100.0 mg/kg/injection, schedule: Q01DX Z (ip), vehicle: methylcellulose (MC)) and 89 % of control (dose: 200.0 mg/kg/injection, schedule: Q01DX Z (ip), vehicle: methylcellulose (MC)).

As to `OC(COc1ccccc1)CN1CCN(c2ccccc2)CC1` (centres undefined), the T/C reads like this: under setting [7], 98 % of control; under setting [8], 102 % of control; under setting [9], 95 % of control and 102 % of control.

Turning to `O=C(Nc1ccc(Cl)cc1)Oc1ccc(Br)cc1Br`, the T/C under setting [10] was 100 % of control, the T/C under setting [11] is 96 % of control and the T/C under setting [12] is 104 % of control.

In the case of `O=C(Nc1ccc(NC(=O)Nc2ccc(C3=NCCCN3)cc2)cc1)Nc1ccc(C2=NCCCN2)cc1`, the T/C (dose: 8.3 mg/kg/injection, schedule: Q04DX003 (ip), vehicle: saline with Tween-80) was 107 % of control; the T/C (dose: 12.0 mg/kg/injection, schedule: Q04DX003 (ip), vehicle: saline with Tween-80) was 121 % of control; the T/C under setting [4] was 124 % of control; the T/C under setting [5] is 159 % of control; the T/C (dose: 264.0 mg/kg/injection, schedule: Q01DX001 (ip), vehicle: saline) is 208 % of control; the T/C under setting [6] was 279 % of control.

Turning to `O=C/C=C/c1cc([N+](=O)[O-])ccc1Cl`, the T/C is, setting by setting: under setting [7], 100 % of control; under setting [8], 96 % of control; under setting [9], 100 % of control.

Turning to `O=C(COc1ccc([N+](=O)[O-])cc1)Nc1cccnc1`, the T/C is 96 % of control under setting [13]; 95 % of control under setting [14]; 96 % of control (dose: 400.0 mg/kg/injection, schedule: Q04DX003 (ip), vehicle: saline with Tween-80).

`Cc1cc(C)c(N(CC(=O)O)S(=O)(=O)c2ccccc2)c(C)c1Br`: the T/C runs as follows: (dose: 75.0 mg/kg/injection, schedule: Q04DX003 (ip), vehicle: Klucel (hydroxypropylcellulose) (HPC)) 92 % of control; (dose: 150.0 mg/kg/injection, schedule: Q04DX003 (ip), vehicle: Klucel (hydroxypropylcellulose) (HPC)) 90 % of control; (dose: 300.0 mg/kg/injection, schedule: Q04DX003 (ip), vehicle: Klucel (hydroxypropylcellulose) (HPC)) 90 % of control.

Consider `COc1cc2cc(-c3cc(OC)c(OC)c(OC)c3)c3c(c2cc1OC)CNC3`, for which the T/C (dose: 12.5 mg/kg/injection, schedule: Q01DX009 (ip), vehicle: water) was 103 % of control; the T/C (dose: 25.0 mg/kg/injection, schedule: Q01DX009 (ip), vehicle: water) is 93 % of control; the T/C (dose: 50.0 mg/kg/injection, schedule: Q01DX009 (ip), vehicle: water) was 97 % of control; the T/C (dose: 100.0 mg/kg/injection, schedule: Q01DX009 (ip), vehicle: water) was 102 % of control and 86 % of control; the T/C (dose: 100.0 mg/kg/injection, schedule: Q04DX003 (ip), vehicle: water) was 102 % of control; the T/C (dose: 200.0 mg/kg/injection, schedule: Q04DX003 (ip), vehicle: water) is 98 % of control. Also, the T/C (dose: 400.0 mg/kg/injection, schedule: Q04DX003 (ip), vehicle: water) was 109 % of control.

`CN(C)C1CCCC(OC(=O)c2ccccc2)C1` (centres undefined): the T/C (dose: 100.0 mg/kg/injection, schedule: Q04DX003 (ip), vehicle: saline sonified) was 98 % of control.

As for `Cc1cccc([N+](=O)[O-])c1-c1ccccc1C(=O)O`, the T/C by setting is: under setting [15], 88 % of control; under setting [10], 93 % of control and 95 % of control; under setting [16], 94 % of control; under setting [11], 96 % of control and 103 % of control; under setting [17], 100 % of control; under setting [12], 97 % of control.

Take `Cc1cccc(NC(=O)CCl)c1C`: the T/C runs as follows: under setting [10], 100 % of control; under setting [16], 100 % of control; under setting [11], 87 % of control; under setting [17], 100 % of control.

As for `COc1cc(C2N=C(N)N=C(N)N2c2ccc(S(N)(=O)=O)cc2)cc(OC)c1OC` (centres undefined), the T/C (dose: 75.0 mg/kg/injection, schedule: Q01DX001 (ip), vehicle: saline) is 93 % of control and the T/C (dose: 150.0 mg/kg/injection, schedule: Q01DX001 (ip), vehicle: saline) was 96 % of control.

Take `Cc1ncc(CN2CSC(CCO)C2C)c(N)n1` (centres undefined): the T/C reads like this: under setting [18], 95 % of control; under setting [19], 93 % of control; under setting [20], 93 % of control.

In the case of `CCOC(=O)c1cnc(SC)nc1Nc1c(Br)cc(Br)cc1Br`, the T/C was 102 % of control (dose: 12.5 mg/kg/injection, schedule: Q01DX009 (ip), vehicle: Klucel (hydroxypropylcellulose) (HPC)); 97 % of control (dose: 12.5 mg/kg/injection, schedule: Q04DX003 (ip), vehicle: Klucel (hydroxypropylcellulose) (HPC)); 102 % of control (dose: 25.0 mg/kg/injection, schedule: Q01DX009 (ip), vehicle: Klucel (hydroxypropylcellulose) (HPC)); 94 % of control (dose: 25.0 mg/kg/injection, schedule: Q04DX003 (ip), vehicle: Klucel (hydroxypropylcellulose) (HPC)); 105 % of control (dose: 50.0 mg/kg/injection, schedule: Q01DX009 (ip), vehicle: Klucel (hydroxypropylcellulose) (HPC)); 103 % of control under setting [15].

Take `CC(C)(C)Sc1ccncc1`: the T/C reads like this: under setting [1], 98 % of control; under setting [2], 88 % of control.

In the case of `Cc1ccccc1Nc1n[nH]c(=S)s1`, the T/C (dose: 50.0 mg/kg/injection, schedule: Q01DX009 (ip), vehicle: saline with Tween-80) was 94 % of control; the T/C under setting [1] was 101 % of control; the T/C under setting [13] is 97 % of control; the T/C under setting [2] is 97 % of control; the T/C under setting [14] is 95 % of control.

In the case of `CC(=O)[O][Hg][C]([Hg][O]C(C)=O)([Hg][O]C(C)=O)[Hg][O]C(C)=O`, the T/C was 91 % of control under setting [18], 96 % of control under setting [19] and 89 % of control under setting [20].

With `CC1CC(=O)NN1` (centres undefined), the T/C by setting is: under setting [1], 94 % of control; under setting [2], 90 % of control; under setting [3], 96 % of control.

On to `CC(=O)NC(C)(C)Cc1ccccc1`, for which the T/C (dose: 50.0 mg/kg/injection, schedule: Q01DX001 (ip), vehicle: carboxymethylcellulose (CMC)) was 89 % of control; the T/C (dose: 100.0 mg/kg/injection, schedule: Q01DX001 (ip), vehicle: carboxymethylcellulose (CMC)) is 94 % of control; the T/C under setting [1] is 111 % of control; the T/C under setting [2] is 101 % of control; the T/C (dose: 400.0 mg/kg/injection, schedule: Q01DX001 (ip), vehicle: carboxymethylcellulose (CMC)) is 94 % of control; the T/C under setting [3] was 86 % of control.
